Like-named read-outs stand apart in the source and are kept apart here.
What was measured:
[1] = tested on: sciatic nerve; test: Sciatic nerve block, thermal nociception (modified hotplate test); assay type: in vivo, rat; details: 1.5 ml of 0.5% bupivacaine (7.5 mg), n=6, rats approx. 410 g
Procedure: (§1) Prior to nerve block injections, rats were anesthetized briefly (<2 minutes) with halothane. […] A 20G needle was introduced postero-medial to the greater trochanter, pointing in an anteromedial direction (Thalhammer et al. “Neurologic evaluation of the rat during sciatic nerve block with lidocaine” Anesthesiology 82:1013-1025, 1995; incorporated herein by reference). Once bone was contacted, the needle was withdrawn 1 mm and the particle-containing solution was injected. The left leg was always used for blocks; the right served as control.
The effectiveness of block was measured at various time points, applying the methods of Thalhammer et al. (Thalhammer et al. “Neurologic evaluation of the rat during sciatic nerve block with lidocaine” Anesthesiology 82:1013-1025, 1995; […]; incorporated herein by reference).
Nociceptive block was assessed by a modified hotplate test (Masters et al. “Prolonged regional nerve blockade by controlled release of local anesthetic from a biodegradable polymer matrix” Anesthesiology 79:1-7, 1993; incorporated herein by reference). Hind paws were exposed in sequence (left then right) to a hot plate at 56° C. (Model 39D Hot Plate Analgesia Meter, IITC Inc., Woodland Hills, Calif.), and the time (latency) until paw withdrawal was measured by a stopwatch. Thermal latency is a measure of the intensity of analgesia. […]

[2] = Median lethal dose of bupivacaine (literature); assay type: in vivo; details: in a 350 g rat
Procedure: Encapsulation improved the safety and efficacy of bupivacaine. […] For this experiment larger rats (approx. 410 g) were used than those used in the remainder of the study, in order to avoid animal death (the median lethal dose of bupivacaine in adult rats is 30±5 mg/kg (Kohane et al. “Sciatic nerve blockade in infant, adolescent, and adult rats: a comparison of ropivacaine and bupivacaine” Anesthesiology 89:1199-1208, 1998; incorporated herein by reference), or 10.5 mg in a 350 g rat). […] It was not possible to directly compare the efficacy of bupivacaine solution and 50% bupivacaine microspheres, since the dose of bupivacaine contained in 75 mg of those microspheres ([…]) is approximately three times the median lethal dose of the unencapsulated drug (Kohane et al. “Sciatic nerve blockade in infant, adolescent, and adult rats: a comparison of ropivacaine and bupivacaine” Anesthesiology 89:1199-1208, 1998). Nevertheless, it is obvious that the microspheres increased the safety of bupivacaine.

[3] = Systemic distribution/toxicity after sciatic injection (contralateral thermal latency, deaths); assay type: in vivo, rat; details: 1.5 ml of 0.5% bupivacaine (7.5 mg), n=6
Procedure: as §1
Nociceptive block was assessed by a modified hotplate test (Masters et al. “Prolonged regional nerve blockade by controlled release of local anesthetic from a biodegradable polymer matrix” Anesthesiology 79:1-7, 1993; incorporated herein by reference). Hind paws were exposed in sequence (left then right) to a hot plate at 56° C. (Model 39D Hot Plate Analgesia Meter, IITC Inc., Woodland Hills, Calif.), and the time (latency) until paw withdrawal was measured by a stopwatch. Thermal latency is a measure of the intensity of analgesia. If the paw remained in contact for 12 seconds, it was removed by the experimenter to avoid injury to the animal or the development of hyperalgesia. This test was repeated three times for each rat at every time-point.

[4] = adult rats; Kohane et al. 1998; cited from earlier work

For `CCCCN1CCCCC1C(=O)Nc1c(C)cccc1C` (stereo not shown) [bupivacaine], the duration of block [1] was 166 ± 55 min, the median lethal dose [2] was 10.5 mg and the “rats with severe signs of systemic toxicity (thermal latency=12 seconds in the uninjected leg)” value [3] was “one of those rats”. For the same molecule, the median lethal dose [4] was 30 ± 5 mg/kg.

— patent US20020150621A1, “Lipid-protein-sugar particles for drug delivery” (priority 2000, published 2002)
